Like-named read-outs stand apart in the source and are kept apart here.
Legend:
Type in all cases: in vivo
[1] = test system: weeds; experiment: Control effect and synergistic effect of the mixture of (i) and (ii), postemergence (Gowing method)
Excerpt: Wherein, in the formula, X represented the fresh weight inhibition rate of the active ingredient A in a dosage of P, and Y represented the fresh weight inhibition rate of the active ingredient B in a dosage of Q. The statistic results are shown in Table 6.

[2] = test system: Echinochloa crus-galli; experiment: Post-emergence test, weed control effect; settings: 504 h, Dose 300 g/ha, after 3 weeks, fresh weight inhibition, read-out: activity level of harmful plant destruction (growth inhibition rate), Echinochloa crus-galli
Outline: (§1)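 Weeds sown in soil-filled pots and sprayed at 2-3 leaf stage (2-3 weeks after sowing) with compound in acetone/Tween-80/water plus 80% vegetable oil methyl ester synergist at 1500 g/ha. After 3 weeks in the greenhouse, fresh-weight growth inhibition scored on a 0-10 scale (10 = completely dead).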

[3] = test system: Veronica polita; experiment: Post-emergence test, weed control effect; settings: after 3 weeks; for inhibition at 300 g/ha: Veronica polita, 504 h, fresh weight inhibition, read-out: activity level of harmful plant destruction (growth inhibition rate), Veronica polita
Outline: as §1

[4] = test system: Galium aparine; experiment: Post-emergence test, weed control effect; settings: 504 h, Dose 300 g/ha, after 3 weeks, fresh weight inhibition, read-out: activity level of harmful plant destruction (growth inhibition rate), Galium aparine
Outline: as §1

[5] = test system: Chenopodiaceae; experiment: Post-emergence test, weed control effect; settings: after 3 weeks; for inhibition at 300 g/ha: 504 h, fresh weight inhibition, read-out: activity level of harmful plant destruction (growth inhibition rate), Chenopodiaceae
Outline: as §1

[6] = test system: Rorippa indica; experiment: Post-emergence test, weed control effect; settings: after 3 weeks; for inhibition at 300 g/ha: Rorippa indica, 504 h, fresh weight inhibition, read-out: activity level of harmful plant destruction (growth inhibition rate), Rorippa indica
Outline: as §1

[7] = test system: Setaria viridis; experiment: Post-emergence test, weed control effect; settings: 504 h, Dose 300 g/ha, after 3 weeks, fresh weight inhibition, read-out: activity level of harmful plant destruction (growth inhibition rate), Setaria viridis
Outline: as §1

[8] = test system: Amaranthus retroflexus; experiment: Post-emergence test, weed control effect; settings: after 3 weeks
Outline: as §1

For `Cc1cc(Cl)ccc1OC(C)C(=O)O` (stereo not shown) [2-methyl 4-chlorophenoxypropionic acid], the “Inhibitory effect of component (ii) when applied alone at same dose” value (“Inhibitory effect of component (ii)” for short) ([1]; Sisymbrium sophia, 100 g a.i./ha, postemergence, 20 days after treatment) was 30%.
For `Oc1cc(Cl)nnc1-c1ccccc1` [A, reference compound], the inhibition at 300 g/ha [2] was 0%, the inhibition at 300 g/ha [3] was 30 to 40% and the inhibition at 300 g/ha [4] was 50 to 60%. For the same molecule, the inhibition at 300 g/ha [5] was 50 to 60%, the inhibition at 300 g/ha [6] was 20 to 30% and the inhibition at 300 g/ha [7] was 30 to 40%.
With `CCCCCCCCSC(=O)Oc1cc(Cl)nnc1-c1ccccc1` [B, reference compound] the inhibition at 300 g/ha [2] was 0%, the inhibition at 300 g/ha [3] was 30 to 40% and the inhibition at 300 g/ha [4] was 40 to 50%. It also gave an inhibition at 300 g/ha [5] of 30 to 40%, an inhibition at 300 g/ha [6] of 30 to 40% and an inhibition at 300 g/ha [7] of 30 to 40%.
In the case of `CCC(Oc1ccc(F)c(C(F)(F)F)c1)C(=O)NCc1ccccc1` (stereo not shown) [Beflubutamid], the “Inhibitory effect of component (ii)” value ([1]; Abutilon theophrasti, 200 g a.i./ha, postemergence, 20 days after treatment) is reported as 40%.
In the case of `CS(=O)(=O)c1ccc(C(=O)C2=C(Sc3ccccc3)C3CCC(C3)C2=O)c(Cl)c1` (stereo not shown) [Benzobicyclon], the “Inhibitory effect of component (ii)” value ([1]; Abutilon theophrasti, 150 g a.i./ha, postemergence, 20 days after treatment) is reported as 50%.
Work on `Cc1ccc(C(=O)COc2c(C(=O)c3ccc(Cl)c(C)c3Cl)c(C)nn2C)cc1` [Benzofenap] yielded a pest or weed control at 150 g/ha ([1]; post-emergence, 480 h, Abutilon theophrasti, 150 g a.i./ha, postemergence, 20 days after treatment, read-out: Inhibitory effect of component (ii) when applied alone at same dose) of 40%.
`CCn1ncc(C(=O)c2ccc(S(C)(=O)=O)c(COCC(F)(F)F)c2Cl)c1OC(=O)c1cn(C)nc1C` [Benzuofucaotong] was tested, and the “Inhibitory effect of component (ii)” value ([1]; Abutilon theophrasti, 15 g a.i./ha, postemergence, 20 days after treatment) was 40%.
In the case of `Cn1nc(-c2cc(O)c(Cl)cc2Cl)c(=O)cc1C(F)(F)F` [C, reference compound], the inhibition at 300 g/ha [2] is reported as 0%, the inhibition at 300 g/ha [3] is reported as 20 to 30% and the inhibition at 300 g/ha [4] is reported as 20 to 30%. The inhibition at 300 g/ha [5] was 30 to 40%, the inhibition at 300 g/ha [6] was 30 to 40% and the inhibition at 300 g/ha [7] was 0%.
Work on `O=C(O)c1nc(Cl)ccc1Cl` [Clopyralid] yielded a pest or weed control at 50 g/ha ([1]; post-emergence, 480 h, Galinsoga parviflora, 50 g a.i./ha, postemergence, 20 days after treatment, read-out: Inhibitory effect of component (ii) when applied alone at same dose) of 40%.
`Oc1cc(C(F)(F)F)nnc1-c1ccccc1` [Compound 1] was tested, and the “weed control effect (activity level), Veronica polita” value ([3]; dose 2000 g/ha) was 10, the “weed control effect (activity level), Chenopodiaceae” value ([5]; dose 2000 g/ha) was 8 (Level 8: above 80% growth inhibition rate) and the “weed control effect (activity level), Rorippa indica” value ([6]; dose 2000 g/ha) was 10. For the same molecule, the “weed control effect (activity level), Amaranthus retroflexus” value ([8]; dose 2000 g/ha) was 10, the “Inhibitory effect of component (i) when applied alone at same dose” value (from here on “Inhibitory effect of component (i)”) ([1]; Abutilon theophrasti, 30 g a.i./ha, postemergence, 20 days after treatment) was 20 and the “Inhibitory effect of component (i)” value ([1]; Galinsoga parviflora, 30 g a.i./ha, postemergence, 20 days after treatment) was 30. The “Inhibitory effect of component (i)” value ([1]; Galium aparine, 30 g a.i./ha, postemergence, 20 days after treatment) was 20, the “Inhibitory effect of component (i)” value ([1]; Sisymbrium sophia, 30 g a.i./ha, postemergence, 20 days after treatment) was 20 and the “Inhibitory effect of component (i)” value ([1]; Veronica polita, 30 g a.i./ha, postemergence, 20 days after treatment) was 30.
For `Oc1cc(C(F)(F)F)nnc1C1=CCCCC1` [Compound 1524], the “weed control effect (activity level), Veronica polita” value ([3]; Dose 3000 g/ha) was 10, the inhibition at 300 g/ha [3] was 90 to 100% and the inhibition at 300 g/ha [4] was 90 to 100%. The inhibition at 300 g/ha [5] was 100%, the “weed control effect (activity level), Chenopodiaceae” value ([5]; Dose 3000 g/ha) was 10 and the “weed control effect (activity level), Rorippa indica” value ([6]; Dose 3000 g/ha) was 10. For the same molecule, the inhibition at 300 g/ha [6] was 100%, the “weed control effect (activity level), Amaranthus retroflexus” value ([8]; Dose 3000 g/ha) was 10 and the inhibition at 300 g/ha [7] was 100%.
For `COc1cc(C(F)(F)F)nnc1-c1ccccc1` [D, reference compound], the inhibition at 300 g/ha [2] was 0%, the inhibition at 300 g/ha [3] was 0% and the inhibition at 300 g/ha [4] was 0%. The inhibition at 300 g/ha [5] was 0 to 20%, the inhibition at 300 g/ha [6] was 0 to 20% and the inhibition at 300 g/ha [7] was 0%.
`COc1c(Cl)ccc(Cl)c1C(=O)O` [Dicamba] gave a pest or weed control at 10 g/ha ([1]; Descurainia sophia, post-emergence, 480 h, Sisymbrium sophia, 10 g a.i./ha, postemergence, 20 days after treatment, read-out: Inhibitory effect of component (ii) when applied alone at same dose) of 30%.
Molecule `CC(Oc1ccc(Cl)cc1Cl)C(=O)O` (stereo not shown) [Dichlorprop] has a pest or weed control at 100 g/ha ([1]; Descurainia sophia, post-emergence, 480 h, Sisymbrium sophia, 100 g a.i./ha, postemergence, 20 days after treatment, read-out: Inhibitory effect of component (ii) when applied alone at same dose) of 40%.
Work on `O=C(Nc1ccc(F)cc1F)c1cccnc1Oc1cccc(C(F)(F)F)c1` [Diflufenican] yielded a pest or weed control at 100 g/ha ([1]; post-emergence, 480 h, Veronica polita, 100 g a.i./ha, postemergence, 20 days after treatment, read-out: Inhibitory effect of component (ii) when applied alone at same dose) of 45%.
`COc1c(Cl)ccc(-c2nc(C(=O)OCc3ccccc3)c(Cl)c(N)c2F)c1F` [Florpyrauxifen-benzyl] was tested, and the “Inhibitory effect of component (ii)” value ([1]; Abutilon theophrasti, 2 g a.i./ha, postemergence, 20 days after treatment) was 45%.
Work on `O=C1C(Cl)C(CCl)CN1c1cccc(C(F)(F)F)c1` (stereo not shown) [Flurochloridone] yielded a pest or weed control at 100 g/ha ([1]; post-emergence, 480 h, Galium aparine, 100 g a.i./ha, postemergence, 20 days after treatment, read-out: Inhibitory effect of component (ii) when applied alone at same dose) of 40%.
For `Nc1c(Cl)c(F)nc(OCC(=O)O)c1Cl` [Fluroxypyr], the pest or weed control at 30 g/ha ([1]; post-emergence, 480 h, Galium aparine, 30 g a.i./ha, postemergence, 20 days after treatment, read-out: Inhibitory effect of component (ii) when applied alone at same dose) was 40%.
`CNC1=C(c2cccc(C(F)(F)F)c2)C(=O)C(c2ccccc2)O1` (stereo not shown) [Flurtamone] gave a pest or weed control at 100 g/ha ([1]; Galium aparine, post-emergence, 480 h, read-out: Inhibitory effect of component (ii) when applied alone at same dose) of 35%.

— patent US12568972B2, “Pyridazinol compounds and derivatives, preparation methods, herbicidal compositions and applications thereof” (Qingdao Kingagroot Chemical Compound Co., Ltd., priority 2018, dated 2026)
